# Starred links: 1 amine or outer side, 2 acyl side, 3 side chain; linkers in the order of their positions; H or OH if unused. Non-standard residues stand in square brackets, D forms with d. Residues, ends and D or L forms follow the SMILES beside them. Groups on a side chain read outwards from the residue. *: point of attachment. C20 diacid = O=C(O)CCCCCCCCCCCCCCCCCCC(=O)*; γGlu = O=C(O)[C@H](CCC(=O)[*:2])N[*:1]; AEEA = NCCOCCOCC(=O)O; Aib = CC(C)(N)C(=O)O
# Key:
# [1] = biological target: T1, human GIP receptor (GIP R) (Homo sapiens, UniProt P48546); experiment: Activity assay at human GIP receptor, cAMP induction (AlphaScreen), Example 3
# T1 sequence (P48546 22-466): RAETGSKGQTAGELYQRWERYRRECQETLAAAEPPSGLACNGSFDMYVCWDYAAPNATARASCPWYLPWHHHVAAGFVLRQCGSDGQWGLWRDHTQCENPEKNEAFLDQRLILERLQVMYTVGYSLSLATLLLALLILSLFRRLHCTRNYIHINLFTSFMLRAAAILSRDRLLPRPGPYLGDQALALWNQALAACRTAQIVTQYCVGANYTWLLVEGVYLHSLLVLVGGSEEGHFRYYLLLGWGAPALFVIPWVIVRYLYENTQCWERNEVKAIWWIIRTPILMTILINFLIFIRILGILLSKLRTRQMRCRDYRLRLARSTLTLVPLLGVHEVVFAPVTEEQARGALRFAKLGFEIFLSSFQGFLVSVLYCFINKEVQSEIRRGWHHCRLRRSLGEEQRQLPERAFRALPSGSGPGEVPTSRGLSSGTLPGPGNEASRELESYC
# [2] = biological target: human GLP-1 receptor (GLP-1R) (Homo sapiens, UniProt P43220); experiment: Activity assay at human GLP-1 receptor, cAMP induction (AlphaScreen), Example 3
# human GIP R = biological target: T2, human GIP R (Homo sapiens, UniProt P48546); experiment: cell-based
# T2 sequence (P48546 22-466): T1 sequence (P48546 22-466)
# Chain of human GLP-1 receptor (GLP-1R) (P43220 24-463): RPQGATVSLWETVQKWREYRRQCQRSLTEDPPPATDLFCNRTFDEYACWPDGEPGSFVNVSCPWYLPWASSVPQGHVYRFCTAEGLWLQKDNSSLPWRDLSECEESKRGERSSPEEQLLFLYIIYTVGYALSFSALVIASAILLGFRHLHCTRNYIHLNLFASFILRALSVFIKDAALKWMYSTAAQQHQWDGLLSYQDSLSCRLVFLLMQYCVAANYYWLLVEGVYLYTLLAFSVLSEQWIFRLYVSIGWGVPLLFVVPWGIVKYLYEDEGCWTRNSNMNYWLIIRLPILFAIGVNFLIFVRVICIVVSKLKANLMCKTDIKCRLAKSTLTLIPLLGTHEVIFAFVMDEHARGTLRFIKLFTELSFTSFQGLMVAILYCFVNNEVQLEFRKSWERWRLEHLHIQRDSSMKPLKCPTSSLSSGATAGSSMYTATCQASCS
SMILES,EC50 [1],EC50 [2],EC50 (human GIP R)
CC[C@H](C)[C@H](NC(=O)[C@H](CO)NC(=O)[C@H](Cc1ccc(O)cc1)NC(=O)[C@H](CC(=O)O)NC(=O)[C@H](CO)NC(=O)[C@@H](NC(=O)[C@H](Cc1ccccc1)NC(=O)[C@@H](NC(=O)CNC(=O)[C@H](CCC(=O)O)NC(=O)C(C)(C)NC(=O)[C@@H](N)Cc1ccc(O)cc1)[C@@H](C)O)[C@@H](C)CC)C(=O)N[C@@H](CCC(=O)O)C(=O)N[C@@H](CC(C)C)C(=O)N[C@@H](CC(=O)O)C(=O)N[C@@H](CCCCN)C(=O)N[C@@H](CCCCNC(=O)COCCOCCNC(=O)COCCOCCNC(=O)CC[C@H](NC(=O)CCCCCCCCCCCCCCCCCCC(=O)O)C(=O)O)C(=O)N[C@@H](Cc1c[nH]cn1)C(=O)N[C@@H](CCC(N)=O)C(=O)N[C@@H](CCC(N)=O)C(=O)N[C@@H](CC(=O)O)C(=O)N[C@@H](Cc1ccccc1)C(=O)N[C@H](C(=O)N[C@@H](CC(N)=O)C(=O)N[C@@H](Cc1c[nH]c2ccccc12)C(=O)N[C@@H](CC(C)C)C(=O)N[C@@H](CC(C)C)C(=O)N[C@@H](C)C(=O)N[C@@H](CCC(N)=O)C(=O)NCC(=O)N1CCC[C@H]1C(=O)N[C@@H](CO)C(=O)N[C@@H](CO)C(=O)NCC(=O)N[C@@H](C)C(=O)N1CCC[C@H]1C(=O)N1CCC[C@H]1C(=O)N1CCC[C@H]1C(=O)N[C@@H](CO)C(N)=O)C(C)C [Compound 9] (H-Y[Aib]EGTFISDYSIELDKK([AEEA-AEEA-γGlu-C20 diacid])HQQDFVNWLLAQGPSSGAPPPS-NH2),9 pM,> 3000 pM,8 pM
CC[C@H](C)[C@H](NC(=O)[C@H](CCCCNC(=O)COCCOCCNC(=O)COCCOCCNC(=O)CC[C@H](NC(=O)CCCCCCCCCCCCCCCCCCC(=O)O)C(=O)O)NC(=O)[C@H](CC(=O)O)NC(=O)[C@H](CC(C)C)NC(=O)[C@H](CCC(=O)O)NC(=O)[C@@H](NC(=O)[C@H](CO)NC(=O)[C@H](Cc1ccc(O)cc1)NC(=O)[C@H](CC(=O)O)NC(=O)[C@H](CO)NC(=O)[C@@H](NC(=O)[C@H](Cc1ccccc1)NC(=O)[C@@H](NC(=O)CNC(=O)[C@H](CCC(=O)O)NC(=O)C(C)(C)NC(=O)[C@@H](N)Cc1ccc(O)cc1)[C@@H](C)O)[C@@H](C)CC)[C@@H](C)CC)C(=O)N[C@@H](C)C(=O)N[C@@H](CCC(N)=O)C(=O)N[C@@H](CCCNC(=N)N)C(=O)N[C@@H](C)C(=O)N[C@@H](Cc1ccccc1)C(=O)N[C@H](C(=O)N[C@@H](CCC(=O)O)C(=O)N[C@@H](Cc1c[nH]c2ccccc12)C(=O)N[C@@H](CC(C)C)C(=O)N[C@@H](CC(C)C)C(=O)N[C@@H](C)C(=O)N[C@@H](CCC(N)=O)C(=O)NCC(=O)N1CCC[C@H]1C(=O)N[C@@H](CO)C(=O)N[C@@H](CO)C(=O)NCC(=O)N[C@@H](C)C(=O)N1CCC[C@H]1C(=O)N1CCC[C@H]1C(=O)N1CCC[C@H]1C(=O)N[C@@H](CO)C(N)=O)[C@@H](C)CC [Compound 34] (H-Y[Aib]EGTFISDYSIELDK([AEEA-AEEA-γGlu-C20 diacid])IAQRAFIEWLLAQGPSSGAPPPS-NH2),17 pM,> 10000 pM,11 pM
CC[C@H](C)[C@H](NC(=O)[C@H](CCCCN)NC(=O)[C@H](CCC(=O)O)NC(=O)[C@H](CC(C)C)NC(=O)[C@H](CCC(=O)O)NC(=O)[C@@H](NC(=O)[C@H](CO)NC(=O)[C@H](Cc1ccc(O)cc1)NC(=O)[C@H](CC(=O)O)NC(=O)[C@H](CO)NC(=O)[C@@H](NC(=O)[C@H](Cc1ccccc1)NC(=O)[C@@H](NC(=O)CNC(=O)[C@H](CCC(=O)O)NC(=O)C(C)(C)NC(=O)[C@@H](N)Cc1ccc(O)cc1)[C@@H](C)O)[C@@H](C)CC)[C@@H](C)CC)C(=O)N[C@@H](C)C(=O)N[C@@H](CCC(N)=O)C(=O)N[C@@H](CCCNC(=N)N)C(=O)N[C@@H](C)C(=O)N[C@@H](Cc1ccccc1)C(=O)N[C@H](C(=O)N[C@@H](CCC(=O)O)C(=O)N[C@@H](Cc1c[nH]c2ccccc12)C(=O)N[C@@H](CC(C)C)C(=O)N[C@@H](CC(C)C)C(=O)N[C@@H](C)C(=O)N[C@@H](CCC(N)=O)C(=O)N[C@@H](CCCCNC(=O)COCCOCCNC(=O)COCCOCCNC(=O)CC[C@H](NC(=O)CCCCCCCCCCCCCCCCCCC(=O)O)C(=O)O)C(N)=O)C(C)C [Compound 14] (H-Y[Aib]EGTFISDYSIELEKIAQRAFVEWLLAQK([AEEA-AEEA-γGlu-C20 diacid])-NH2),14 pM,> 10000 pM,24 pM
CC[C@H](C)[C@H](NC(=O)[C@H](CO)NC(=O)[C@H](Cc1ccc(O)cc1)NC(=O)[C@H](CC(=O)O)NC(=O)[C@H](CO)NC(=O)[C@@H](NC(=O)[C@H](Cc1ccccc1)NC(=O)[C@@H](NC(=O)CNC(=O)[C@H](CCC(=O)O)NC(=O)C(C)(C)NC(=O)[C@@H](N)Cc1ccc(O)cc1)[C@@H](C)O)[C@@H](C)CC)C(=O)N[C@@H](CCC(=O)O)C(=O)N[C@@H](CC(C)C)C(=O)N[C@@H](CC(=O)O)C(=O)N[C@@H](CCCCN)C(=O)N[C@@H](CCCCNC(=O)COCCOCCNC(=O)COCCOCCNC(=O)CC[C@H](NC(=O)CCCCCCCCCCCCCCCCCCC(=O)O)C(=O)O)C(=O)N[C@@H](C)C(=O)N[C@@H](CCC(N)=O)C(=O)N[C@@H](CCCCN)C(=O)N[C@@H](CCC(=O)O)C(=O)N[C@@H](Cc1ccccc1)C(=O)N[C@H](C(=O)N[C@@H](CCC(=O)O)C(=O)N[C@@H](Cc1c[nH]c2ccccc12)C(=O)N[C@@H](CC(C)C)C(=O)N[C@@H](CC(C)C)C(=O)N[C@@H](C)C(=O)N[C@@H](C)C(=O)NCC(=O)N1CCC[C@H]1C(=O)N[C@@H](CO)C(=O)N[C@@H](CO)C(=O)NCC(=O)N[C@@H](C)C(=O)N1CCC[C@H]1C(=O)N1CCC[C@H]1C(=O)N1CCC[C@H]1C(=O)N[C@@H](CO)C(N)=O)C(C)C [Compound 22] (H-Y[Aib]EGTFISDYSIELDKK([AEEA-AEEA-γGlu-C20 diacid])AQKEFVEWLLAAGPSSGAPPPS-NH2),7 pM,> 10000 pM,5 pM
CC[C@H](C)[C@H](NC(=O)[C@H](CO)NC(=O)[C@H](Cc1ccc(O)cc1)NC(=O)[C@H](CC(=O)O)NC(=O)[C@H](CO)NC(=O)[C@@H](NC(=O)[C@H](Cc1ccccc1)NC(=O)[C@@H](NC(=O)CNC(=O)[C@H](CCC(=O)O)NC(=O)C(C)(C)NC(=O)[C@@H](N)Cc1ccc(O)cc1)[C@@H](C)O)[C@@H](C)CC)C(=O)N[C@@H](CCC(=O)O)C(=O)N[C@@H](CC(C)C)C(=O)N[C@@H](CC(=O)O)C(=O)N[C@@H](CCCCN)C(=O)N[C@@H](CCCCNC(=O)COCCOCCNC(=O)COCCOCCNC(=O)CC[C@H](NC(=O)CCCCCCCCCCCCCCCCCCC(=O)O)C(=O)O)C(=O)N[C@@H](C)C(=O)N[C@@H](C)C(=O)N[C@@H](CCC(N)=O)C(=O)N[C@@H](CC(=O)O)C(=O)N[C@@H](Cc1ccccc1)C(=O)N[C@H](C(=O)N[C@@H](CC(N)=O)C(=O)N[C@@H](Cc1c[nH]c2ccccc12)C(=O)N[C@@H](CC(C)C)C(=O)N[C@@H](CC(C)C)C(=O)N[C@@H](C)C(=O)N[C@@H](C)C(=O)NCC(=O)N1CCC[C@H]1C(=O)N[C@@H](CO)C(=O)N[C@@H](CO)C(=O)NCC(=O)N[C@@H](C)C(=O)N1CCC[C@H]1C(=O)N1CCC[C@H]1C(=O)N1CCC[C@H]1C(=O)N[C@@H](CO)C(N)=O)C(C)C [Compound 30] (H-Y[Aib]EGTFISDYSIELDKK([AEEA-AEEA-γGlu-C20 diacid])AAQDFVNWLLAAGPSSGAPPPS-NH2),14 pM,> 10000 pM,9 pM
